Measured values: ChEMBL document CHEMBL1201862, “PubChem BioAssay data set” (2004)
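Protocol summary: plate cells (96-well), add compound at 5 concentrations, incubate 48 h, interpolate endpoints linearly. GI50 is the concentration that inhibits growth by half.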 The source made the active and inactive calls. Rule as the data show it: active = GI50 up to about 1.1 µM and inactive = higher.

What was measured:
Assay in all cases: inhibition of tumour cell growth, NCI panel, 48 h
786-0 = tested on: 786-0
CCRF-CEM = tested on: CCRF-CEM
EKVX = tested on: EKVX
IGROV-1 = tested on: IGROV-1
K562 = tested on: K562
KM12 = tested on: KM12
MDA-MB-231 = tested on: MDA-MB-231
MDA-MB-435 = tested on: MDA-MB-435
NCI-H23 = tested on: NCI-H23
NCI/ADR-RES = tested on: NCI/ADR-RES
OVCAR-4 = tested on: OVCAR-4
OVCAR-8 = tested on: OVCAR-8
RPMI-8226 = tested on: RPMI-8226
RXF 393 = tested on: RXF 393
SF-295 = tested on: SF-295
SNB-19 = tested on: SNB-19
TK-10 = tested on: TK-10
SNB-75 = tested on: SNB-75
NCI-H522 = tested on: NCI-H522

Compound | GI50 (786-0) | GI50 (CCRF-CEM) | GI50 (EKVX) | GI50 (IGROV-1) | GI50 (K562) | GI50 (KM12) | GI50 (MDA-MB-231) | GI50 (MDA-MB-435) | GI50 (NCI-H23) | GI50 (NCI/ADR-RES) | GI50 (OVCAR-4) | GI50 (OVCAR-8) | GI50 (RPMI-8226) | GI50 (RXF 393) | GI50 (SF-295) | GI50 (SNB-19) | GI50 (TK-10) | GI50 (SNB-75) | GI50 (NCI-H522)
CCNC(=S)N/N=C1\C(=O)Nc2ccc([N+](=O)[O-])cc21 | 19.1 µM (inactive) | 7.06 µM (inactive) | 50.5 µM (inactive) | 31.6 µM (inactive) | 52.7 µM (inactive) | 52.7 µM (inactive) | 35.3 µM (inactive) | 88.1 µM (inactive) | > 100 µM (inactive) | 32.8 µM (inactive) | 25.6 µM (inactive) | 34.7 µM (inactive) | > 100 µM (inactive) | 26 µM (inactive) | 29.3 µM (inactive) | 45.4 µM (inactive) | 18.2 µM (inactive) |  | 
O=C1NCC2(CCNCC2)N1 | > 100 µM (inactive) | > 100 µM (inactive) | > 100 µM (inactive) | > 100 µM (inactive) |  | > 100 µM (inactive) | > 100 µM (inactive) | > 100 µM (inactive) | > 100 µM (inactive) | > 100 µM (inactive) | > 100 µM (inactive) | > 100 µM (inactive) | > 100 µM (inactive) | > 100 µM (inactive) | > 100 µM (inactive) | > 100 µM (inactive) | > 100 µM (inactive) | > 100 µM (inactive) | 
COc1ccccc1CNCCCCCNCCCCCCCCCCNCCCCCNCc1ccccc1OC | 23.9 µM (inactive) | 13 µM (inactive) |  | 18.8 µM (inactive) | 13.6 µM (inactive) | 4.54 µM (inactive) | 16.2 µM (inactive) | 57.4 µM (inactive) | 42.2 µM (inactive) |  | 79.1 µM (inactive) | 25.6 µM (inactive) | 36.7 µM (inactive) | 31 µM (inactive) | 24.7 µM (inactive) | 38.1 µM (inactive) | 54.6 µM (inactive) | 25.6 µM (inactive) | 19.8 µM (inactive)
COC(=O)/C=C1/OC(c2ccccc2)=C(Br)C1=O | 25 µM (inactive) | 25.8 µM (inactive) | > 100 µM (inactive) | > 10 µM (inactive) | 21.7 µM (inactive) | 55.5 µM (inactive) | 8.07 µM (inactive) | 38 µM (inactive) | 57.5 µM (inactive) |  | 55.7 µM (inactive) | 29.9 µM (inactive) | 31.4 µM (inactive) | 48.2 µM (inactive) |  | 79.1 µM (inactive) | 80.5 µM (inactive) | 45 µM (inactive) | 25.1 µM (inactive)
CC(C)C(N)C(=O)NC(CCC(=O)NCCCCC(N)C(=O)NCCCNc1ccc([N+](=O)[O-])c2[nH]c3ccccc3c(=O)c12)C(N)=O (centres undefined) | 35.8 µM (inactive) | 34.5 µM (inactive) | > 100 µM (inactive) |  | > 100 µM (inactive) | > 100 µM (inactive) | 41.2 µM (inactive) | 67.9 µM (inactive) | 88.7 µM (inactive) | 43 µM (inactive) | 20.6 µM (inactive) | 31.2 µM (inactive) | 33.7 µM (inactive) | 11 µM (inactive) | 55.7 µM (inactive) | 35.2 µM (inactive) | > 100 µM (inactive) | 48.9 µM (inactive) | 
COC(=O)C(COC(C)=O)NC(=O)/C=C/c1ccc(O)c(OC(C)=O)c1 (centres undefined) | 55.8 µM (inactive) | 17.4 µM (inactive) | > 100 µM (inactive) | 31.6 µM (inactive) | 44.6 µM (inactive) | 67.1 µM (inactive) | 30.1 µM (inactive) | > 100 µM (inactive) | > 100 µM (inactive) | 75.3 µM (inactive) | 70.8 µM (inactive) | 58.1 µM (inactive) | 29.6 µM (inactive) |  | > 100 µM (inactive) | > 100 µM (inactive) | 77.4 µM (inactive) | > 100 µM (inactive) | 11.4 µM (inactive)
COCCNc1cncc(C(N)=O)c1 | > 100 µM (inactive) | > 100 µM (inactive) | > 100 µM (inactive) | > 100 µM (inactive) | > 100 µM (inactive) | > 100 µM (inactive) | > 100 µM (inactive) |  | > 100 µM (inactive) | > 100 µM (inactive) | > 100 µM (inactive) | > 100 µM (inactive) |  |  | > 100 µM (inactive) | > 100 µM (inactive) | > 100 µM (inactive) | 87.9 µM (inactive) | > 100 µM (inactive)
CN(CC(=O)Nc1ccccc1C(=O)O)c1ccccc1 | > 100 µM (inactive) | > 100 µM (inactive) | > 100 µM (inactive) | > 100 µM (inactive) | > 100 µM (inactive) | > 100 µM (inactive) | > 100 µM (inactive) |  | > 100 µM (inactive) |  | > 100 µM (inactive) | > 100 µM (inactive) | > 100 µM (inactive) | > 100 µM (inactive) | > 100 µM (inactive) | > 100 µM (inactive) | > 100 µM (inactive) | > 100 µM (inactive) | > 100 µM (inactive)
Cc1ccc(C(=O)/C(C#N)=C/Nc2c(C)n(C)n(-c3ccccc3)c2=O)cc1 | > 100 µM (inactive) | > 100 µM (inactive) | > 100 µM (inactive) | > 100 µM (inactive) | > 100 µM (inactive) | > 100 µM (inactive) | > 100 µM (inactive) | > 100 µM (inactive) | > 100 µM (inactive) |  | > 100 µM (inactive) |  | > 100 µM (inactive) | > 100 µM (inactive) | > 100 µM (inactive) | > 100 µM (inactive) | > 100 µM (inactive) |  | > 100 µM (inactive)
Cc1c(/C=N\NC(=S)NCCNC(=S)N/N=C\c2c(C)n(C)n(-c3ccccc3)c2=O)c(=O)n(-c2ccccc2)n1C | > 100 µM (inactive) |  | > 100 µM (inactive) |  |  | > 100 µM (inactive) | 54.8 µM (inactive) | 92.5 µM (inactive) | > 100 µM (inactive) | > 100 µM (inactive) | > 100 µM (inactive) |  |  | > 100 µM (inactive) | > 100 µM (inactive) | > 100 µM (inactive) | > 100 µM (inactive) | 38 µM (inactive) | 
COC(=O)/C(=C\C(=O)c1ccc(Br)cc1)NN=C(c1ccccc1)c1ccccc1 | > 10 µM (inactive) | > 10 µM (inactive) | > 10 µM (inactive) | > 10 µM (inactive) | > 10 µM (inactive) | > 10 µM (inactive) | > 10 µM (inactive) | > 10 µM (inactive) | > 10 µM (inactive) |  | > 10 µM (inactive) | > 10 µM (inactive) | > 10 µM (inactive) | > 10 µM (inactive) | > 10 µM (inactive) |  | > 10 µM (inactive) | > 10 µM (inactive) | 
C#C[C@]1(O)CC[C@H]2[C@@H]3CCC4=C/C(=N/NC(=O)c5cccc6cc7ccccc7nc56)CC[C@@H]4[C@H]3CC[C@@]21CC | 34.4 µM (inactive) | 40.5 µM (inactive) |  | 87.9 µM (inactive) | > 100 µM (inactive) | > 100 µM (inactive) | > 100 µM (inactive) | 91.4 µM (inactive) | > 100 µM (inactive) | 58.9 µM (inactive) | > 100 µM (inactive) | 45 µM (inactive) | 71.6 µM (inactive) | > 100 µM (inactive) |  | > 100 µM (inactive) |  | > 100 µM (inactive) | 
C=CCC1(C(=O)OC)CCC/C(=N\O)C1 (centres undefined) | > 10 µM (inactive) | > 10 µM (inactive) |  | > 10 µM (inactive) | > 10 µM (inactive) | > 10 µM (inactive) | > 10 µM (inactive) | > 10 µM (inactive) | > 10 µM (inactive) | > 10 µM (inactive) | > 10 µM (inactive) | > 10 µM (inactive) | > 10 µM (inactive) |  | > 10 µM (inactive) | > 10 µM (inactive) | > 10 µM (inactive) | > 10 µM (inactive) | > 10 µM (inactive)
OCC(O)C(O)C(O)C(/C=N\Nc1ncnc2ccc(Br)cc12)=N/Nc1ncnc2ccc(Br)cc12 (centres undefined) | 5.47 µM (inactive) |  | 4.42 µM (inactive) | 4.09 µM (inactive) | 7.48 µM (inactive) | 17.2 µM (inactive) | 2.87 µM (inactive) | 12.9 µM (inactive) |  |  | 2.94 µM (inactive) | 4.01 µM (inactive) | > 100 µM (inactive) | 24.9 µM (inactive) | 23 µM (inactive) | 51.5 µM (inactive) | 80.5 µM (inactive) | 24.4 µM (inactive) | 0.596 µM (active)
CN1C(=O)C(O)C[C@@H]1c1ccc(F)cc1 (some centres undefined) | > 100 µM (inactive) | > 100 µM (inactive) | > 100 µM (inactive) | > 100 µM (inactive) |  |  | > 100 µM (inactive) | > 100 µM (inactive) | > 100 µM (inactive) |  | > 100 µM (inactive) |  | > 100 µM (inactive) | > 100 µM (inactive) | > 100 µM (inactive) | > 100 µM (inactive) | > 100 µM (inactive) |  | 
Cc1ccc(S(=O)(=O)NC(=O)Nc2ccc(C(=O)O)cc2)cc1 | > 100 µM (inactive) | > 100 µM (inactive) |  | > 100 µM (inactive) | > 100 µM (inactive) | > 100 µM (inactive) | > 100 µM (inactive) |  | > 100 µM (inactive) | > 100 µM (inactive) | > 100 µM (inactive) | > 100 µM (inactive) | > 100 µM (inactive) | > 100 µM (inactive) | > 100 µM (inactive) | > 100 µM (inactive) | > 100 µM (inactive) | > 100 µM (inactive) | > 100 µM (inactive)
